Test results taken from patent publication US20250121067A1, “WATER-SOLUBLE CANNABINOID PRODRUGS COMPOSITIONS AND METHODS OF SYNTHESIZING THE SAME” (Trait Biosciences, Inc., priority 2022, published 2025).

Experiments:
[1] = intrinsic aqueous solubility; Int. J. Pharmaceutics 2020, 589, 119812; cited from earlier work
physchem = details: aqueous medium, thermodynamic from solid, room temperature
Method: The thermodynamic aqueous solubility of CBD and CBG glycine conjugates in salt forms was determined using the equilibrium shake method outlined in the United States Pharmacopeia (USP) General Chapter <1236>Solubility Measurements (Table 1).

[2] = Solubility (mg/mL) CBD/CBG equivalent, expressed as CBD/CBG equivalent
[3] = Solubility (mg/mL) Salt derivative, expressed as salt derivative

## C=C(C)[C@@H]1CCC(C)=C[C@H]1c1c(O)cc(CCCCC)cc1O [CBD, cannabidiol]
[1]
  solubility of CBD: 0.1 µg/mL

## C=C(C)[C@@H]1CCC(C)=C[C@H]1c1c(O)cc(CCCCC)cc1OC(=O)NCC(=O)[O-].[Na+] [Example 3, Sodium ((((1′R,2′R)-6-hydroxy-5′-methyl-4-pentyl-2′-(prop-1-en-2-yl)-1′,2′,3′,4′-tetrahydro-[1,1′-biphenyl]-2-yl)oxy)carbonyl)glycinate]
physchem; [2]
  solubility: 3140 µg/mL
physchem; [3]
  solubility: 4370 µg/mL

## CCCCCc1cc(O)c(C/C=C(\C)CCC=C(C)C)c(OC(=O)NCC(=O)[O-])c1.[Na+] [Example 10, Sodium (E)-((2-(3,7-dimethylocta-2,6-dien-1-yl)-3-hydroxy-5-pentylphenoxy)carbonyl)glycinate]
physchem; [2]
  solubility: 10000 µg/mL
physchem; [3]
  solubility: 13300 µg/mL
